Patent US8936809B2, “Method for treating prostate diseases based on local delivery of active substances” (Lidds AB, priority 2005, dated 2015)
Where two headings read alike, the source gives them in different places.

Columns and labels:
[1] = Plasma pharmacokinetics and tissue level after local administration of ceramic-based controlled release composition into dog prostate (Example 1); type: in vivo
Description: One week later, the same animals were given 2-hydroxy-flutamide locally by a controlled release pharmaceutical composition in the prostate tissue. The 2-hydroxy- flutamide doses were 0 mg (H1), 30 mg (H3), 60 mg (H2) and 120 mg (H4), and each dog was given one implant only. Where H1 was a control given the composition without 2-hydroxy-flutamide. All doses of 2-hydroxy-flutamide were given after an overnight fast. Dog 1 (H1) and dog 3 (H3) were given an enema preoperatively. After the local prostate application of the pharmaceutical composition through rectum, an antibiotic (Quinolon) was administered in normal doses.
The controlled release pharmaceutical composition was composed of a calcium sulphate ceramic and 2-hydroxy-flutamide (Catalogue No. 161.01, from Micromol). To prepare the implant, a calcium sulfate hemi-hydrate (Calcium Sulfate-0.5-hydrate, Product No. 12090, from Riedel-de Haen) is mixed as a fine-grained powder with water and the active agent to form an injectable paste. The paste solidifies in-vivo in about 5 minutes to a solid implant. The ceramic powder to water ratio is 1:2 and the dose of active agent (30, 60 or 120 mg) is mixed with a total 0.8 ml of paste.
The controlled release pharmaceutical composition was inserted locally into the prostate tissue through needles by ultrasound guidance. The animals were under general anesthesia during the insertion procedure. The needle (15 cm long with an outer diameter of 0.9 mm) was inserted into the prepared rectum (an enema was given preoperatively) and was inserted through the rectal and abdominal wall and positioned in the prostate tissue by ultrasound guidance. The pharmaceutical composition was given as multiple thin strings of approximately 12 mm length and with a diameter of 1-2 mm.
After administration of the controlled release pharmaceutical composition in the prostate tissue, blood samples were taken during 3 weeks. Samples of 1.0 ml were taken from the Cephalic vein at day 0, after 6 hours and then in the morning at day 1, 2, 3, 4, 5, 6, 9, 12, 14, 16, 19 and 20 following the administration of the implant. The blood samples were immediately centrifuged at 3000 rpm and the plasma samples were frozen at −20° C. until analysis.
After day 20, each dog was terminated with an intravenous dose of a mixture of pentobarbital and potassium. The following organs were surgical removed and frozen: prostate, testis, liver and kidney for the assessment of effect and safety. These organs were carefully examined as a consequence of the local tissue exposure of 2-hydroxy-flutamide and the ceramic-based implant.
Quantification of 2-hydroxy-flutamide in plasma and tissue samples was done by HPLC-MS. HPLC was performed with a Surveyor HPLC system equipped with a CTC Pal autosampler. The analytical column was a Zorbax Eclipse XDB-18 (2.1 mm×50 mm, particle size 5 μm) connected to a guard column. The eluent consisted of solvent A (aqueous formic acid 0.1%) and B (acetonitrile), a linear gradient from 25 to 90% of solvent B in 5 minutes was applied. The proportion of solvent B was then lowered to 25% in one minute and was allowed to equilibrate at this level for two minutes prior to the next injection. The volumetric flow-rate was 200 μL/min and the injection volume was 20 μL. The HPLC column outlet was coupled to a TSQ Quantum Ultra tandem triple quadrupole mass spectrometer (ThermoFinnigan, San José, Calif., USA). The transition of m/z 291 [M-H]^−→205 was used for 2-hydroxy-flutamide and m/z 316 [M-H]^−→273 was used for nilutamide (internal standard). The limit of quantification was 0.50 ng/ml in dog plasma. Calibration samples were prepared by spiking blank plasma samples with 100 μL of solutions of 2-hydroxy-flutamide at different concentrations. […]

[2] = Plasma pharmacokinetics and tissue level after controlled release implant into bulbourethral gland of male sheep (Example 2); type: in vivo; settings: three moths after the injection
[3] = system: prostate tissue; experiment: Efficacy and safety of local prostate implant in male beagle dogs: side effects, urinated volume, histopathology (Example 3); type: in vivo, dog
Description: The major purpose of the present animal study was to examine the efficacy and safety of the new local drug delivery system with 2-hydroxyflutamide, a selective antagonist of the androgen receptor (AR) as the active moiety in human prostate tissue during various treatment periods in male dogs. The dog has been selected as the test model because of its proven suitability in this type of study. The study was performed in 12 male beagle dogs from Harlan Winkelmann GmbH, Germany. The sterile controlled release implant was composed of ceramic compounds and 2-hydroxyflutamide. Storage and handling instructions were given. The composition of the formulation of the low and high dose was 250 mg of 2-hydroxyflutamide +2.25 g calcium sulphate […] +5.0 g calcium sulphate hemi-hydrate and it was mixed with solution: 3.5 ml of water solution (with 1% acetic acid and 1% methyl cellulose). The final formulation work was done during sterile conditions by trained personal at the experimental day. […] The animals were fasted for at least 12 hours prior to the insertion procedure on Day 1. The implant drug delivery system was inserted locally into the prostate tissue, via rectum, through sterile needles during rectal ultrasound guidance. Each animal was under anesthesia during the insertion procedure.

[4] = male, Labrador, plasma, dog H2, 60 mg local prostate implant
[5] = male, Labrador, plasma, dog H3, 30 mg local prostate implant
[6] = male, Labrador, plasma, dog H4, 120 mg local prostate implant
[7] = local prostate implant 250 mg or 500 mg

Compound: CC(C)(O)C(=O)Nc1ccc([N+](=O)[O-])c(C(F)(F)F)c1 [2-hydroxy-flutamide]
- concentration in the prostate tissue ([1]; dogs, after three weeks of treatment with local implant): not possible to quantify
- Cmax after intravenous dosing relative to Cmax after local implant dosing ([1]; dogs, i.v. 25 mg versus local implant 120 mg): about 6 times
- half-life ([1]; male, Labrador, dog, plasma, 30 mg, dog H3, 30 mg local prostate implant, read-out: t1/2 (converted)): 35 h
- half-life ([1]; male, Labrador, dog, plasma, 60 mg, dog H2, 60 mg local prostate implant, read-out: t1/2 (converted)): 45 h
- half-life ([1]; male, Labrador, dog, plasma, 120 mg, dog H4, 120 mg local prostate implant, read-out: t1/2 (converted)): 41 h
- half-life ([1]; male, Labrador, dog, plasma, 120 mg, given in the ceramic composition, three dosed dogs (30, 60, 120 mg), read-out: elimination half-life): 35 to 45 h
- bioavailability ([1]; male, Labrador, dog, plasma, dogs, local prostate implant, on average, read-out: bioavailability from the intraprostate tissue (approximation)): > 100%
- AUC [1, 4]: 4020 ng·h/mL
- Cmax [1, 4]: 69.5 ng/mL
- Tmax [1, 4]: 6 h
- AUC [1, 5]: 990 ng·h/mL
- Cmax [1, 5]: 26.4 ng/mL
- Tmax [1, 5]: 6 h
- AUC [1, 6]: 9410 ng·h/mL
- Cmax [1, 6]: 142 ng/mL
- Tmax [1, 6]: 24 h
- levels in prostate gland [2]: possible to quantify
- diarrhea [3, 7]: no diarrhea observed
- effect of the treatment on the urinated volume [3, 7]: no effect
- side-effects [3, 7]: no side-effects were observed
- microscopic findings of the prostate tissue (histopathology) ([3]; treated groups, local prostate implant): increased incidence of vacuolation and cystic acini
